{"source": "paper PMC7287671", "about": "“Anticancer Ruthenium Complexes with HDAC Isoform Selectivity” (Molecules, 2020)", "key": {"[1]": {"tested_on": "MCF7 human breast adenocarcinoma cell line", "experiment": "Cell viability assay (ChemoMetec Via1-Cassette)", "format": "cell-based", "settings": "MCF7, 96 h, triplicate", "method": "viable cells. The experiments were carried out in triplicate."}, "[2]": {"target": "T1, HDAC6 (Homo sapiens, UniProt Q9UBN7)", "T1 construct": "GST; purchased BPS Bioscience", "T1 sequence (Q9UBN7 1-1215)": "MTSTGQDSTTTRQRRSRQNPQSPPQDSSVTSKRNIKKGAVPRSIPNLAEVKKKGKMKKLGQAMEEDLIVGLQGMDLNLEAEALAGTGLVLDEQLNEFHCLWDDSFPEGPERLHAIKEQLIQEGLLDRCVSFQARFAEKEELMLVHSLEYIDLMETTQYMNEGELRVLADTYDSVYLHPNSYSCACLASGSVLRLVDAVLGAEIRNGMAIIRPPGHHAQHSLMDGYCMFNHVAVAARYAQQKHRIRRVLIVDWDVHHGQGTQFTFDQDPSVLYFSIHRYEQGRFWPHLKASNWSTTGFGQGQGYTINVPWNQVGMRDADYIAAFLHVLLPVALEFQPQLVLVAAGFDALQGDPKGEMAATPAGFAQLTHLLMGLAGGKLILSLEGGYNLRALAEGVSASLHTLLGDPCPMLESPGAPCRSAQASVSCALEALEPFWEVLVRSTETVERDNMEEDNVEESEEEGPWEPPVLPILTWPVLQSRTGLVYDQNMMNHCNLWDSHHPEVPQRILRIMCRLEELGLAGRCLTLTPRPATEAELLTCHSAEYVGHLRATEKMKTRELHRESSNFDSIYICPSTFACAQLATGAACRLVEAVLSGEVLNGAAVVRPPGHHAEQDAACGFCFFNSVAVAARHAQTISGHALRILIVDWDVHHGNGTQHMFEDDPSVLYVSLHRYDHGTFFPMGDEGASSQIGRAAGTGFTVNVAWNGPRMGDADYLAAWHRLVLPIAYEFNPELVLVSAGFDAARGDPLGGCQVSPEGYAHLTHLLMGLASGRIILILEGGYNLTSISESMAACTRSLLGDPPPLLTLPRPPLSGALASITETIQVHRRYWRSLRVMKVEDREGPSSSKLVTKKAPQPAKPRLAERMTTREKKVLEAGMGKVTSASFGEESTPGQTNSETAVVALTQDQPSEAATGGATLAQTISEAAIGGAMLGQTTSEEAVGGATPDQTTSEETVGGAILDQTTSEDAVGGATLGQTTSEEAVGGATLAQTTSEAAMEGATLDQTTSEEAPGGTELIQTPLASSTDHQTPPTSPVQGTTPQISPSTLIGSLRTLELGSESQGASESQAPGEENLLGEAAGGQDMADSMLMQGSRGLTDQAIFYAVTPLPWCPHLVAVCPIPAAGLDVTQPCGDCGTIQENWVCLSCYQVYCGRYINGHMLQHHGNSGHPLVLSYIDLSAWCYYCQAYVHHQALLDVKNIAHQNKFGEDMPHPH", "experiment": "HDAC6 fluorimetric enzyme inhibition assay (BPS Bioscience kit)", "format": "biochemical", "settings": "for Percentage HDAC6 activity: activity relative to control with no added inhibitor", "method": "(§1) These isoforms were chosen as they provide contrasting binding topographies, and HDAC6 in particular is closely linked with cancer metastasis (Figure 2).\n(§2) 5. Enzyme Inhibition Assay\n(§3) HDAC enzyme inhibition assays were carried out for as stated using commercially available assay kits (BPS Bioscience ) and undertaken in a 96 well plate. All measurements were carried out in triplicate and standard deviation errors are included in the plots. Human recombinant enzymes HDAC1 FLAG-tag His-tag and HDAC6 GST-tag were used. Potential inhibitors were dosed at the required concentration […]\n(§4) NaCl, 2.7 mM KCl, 1 mM MgCl 2). A master mixture was made using assay buffer, acetylated substrate specific to HDAC enzyme (200 µM) and BSA (1 mg/mL) in a ratio of buffer:substrate:BSA (6:1:1) and 40 µL added to each well plate. Buffer (10 µL) was added to all blank wells and inhibitor (5 µL) was added to all potential inhibitor wells. HDAC enzymes were diluted based on their stated activity and 5 µL was added to all wells except blanks and the plate incubated at 37 °C for 30 min. Developer was added and the mixture incubated at room temperature for a further 15 min. Fluorescence was measured […]\n(§5) Percentage HDAC activity is […]\n(§6) determined by quantification of fluorescence relative to control, with no added inhibitor.\n(§7) IC 50 values are calculated using least squares regression fitting to equation S2, where Y = calculated HDAC activity at given concentration, X = concentration of inhibitor, a = gradient scaling factor and SP = saturation point (i.e. 100% activity). Errors calculated using the formula for standard […]\n(§8) Y = ୣ୶୮ (௔×(௑ିூ ఱబ)) × SP (S2)\n(§9) All assays carried out in […]"}, "[3]": {"target": "T2, HDAC1 (Homo sapiens, UniProt Q13547)", "T2 construct": "FLAG; His; purchased BPS Bioscience", "T2 sequence (Q13547 whole entry)": "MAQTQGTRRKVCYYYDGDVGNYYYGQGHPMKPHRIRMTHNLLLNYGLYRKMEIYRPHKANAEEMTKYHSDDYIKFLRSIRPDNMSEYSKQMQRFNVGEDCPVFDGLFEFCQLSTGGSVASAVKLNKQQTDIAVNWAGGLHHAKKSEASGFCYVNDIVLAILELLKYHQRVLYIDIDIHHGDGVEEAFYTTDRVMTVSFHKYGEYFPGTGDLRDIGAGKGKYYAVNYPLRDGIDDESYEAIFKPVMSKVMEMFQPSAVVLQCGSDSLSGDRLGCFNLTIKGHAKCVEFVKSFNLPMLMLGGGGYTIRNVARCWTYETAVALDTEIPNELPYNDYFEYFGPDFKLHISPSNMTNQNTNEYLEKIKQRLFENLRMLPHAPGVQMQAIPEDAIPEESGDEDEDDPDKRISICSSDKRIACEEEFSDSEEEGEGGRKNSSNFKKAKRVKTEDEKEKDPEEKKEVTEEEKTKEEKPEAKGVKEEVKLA", "experiment": "HDAC1 fluorimetric enzyme inhibition assay (BPS Bioscience kit)", "format": "biochemical", "settings": "for Percentage HDAC1 activity: activity relative to control with no added inhibitor", "method": "as §1, §2, §3, §4, §5, §6, §7, §8, §9"}}}
{"smiles": "O=C(CCCCCCC(=O)Nc1cc2cccnc2c2ncccc12)NO", "note": "[L^1]", "values": [{"measurement": "EC50", "setting": "[1]", "value": "3000 ± 600", "unit": "nM"}, {"measurement": "Percentage HDAC6 activity", "setting": "[2]; 0.1 uM inhibitor", "value": "17 ± 3", "unit": "%"}, {"measurement": "Percentage HDAC6 activity", "setting": "[2]; 1 uM inhibitor", "value": "1.5 ± 1", "unit": "%"}, {"measurement": "IC50", "setting": "[2]; human recombinant HDAC6 GST-tag, triplicate", "value": "41 ± 2", "unit": "nM"}, {"measurement": "Selectivity Factor", "setting": "[2]; ratio of the IC50 values for HDAC1 and HDAC6", "value": 2.6}, {"measurement": "Percentage HDAC1 activity", "setting": "[3]; 0.1 uM inhibitor", "value": "44 ± 7", "unit": "%"}, {"measurement": "Percentage HDAC1 activity", "setting": "[3]; 1 uM inhibitor", "value": "6 ± 13", "unit": "%"}, {"measurement": "IC50", "setting": "[3]; human recombinant HDAC1 FLAG-tag His-tag, triplicate", "value": "105 ± 15", "unit": "nM"}]}
{"smiles": "O=C(CCCCCCC(=O)Nc1ccccc1)NO", "note": "[SAHA, suberanilohydroxamic acid, reference compound]", "values": [{"measurement": "Percentage HDAC6 activity", "setting": "[2]; 0.1 uM inhibitor", "value": "22 ± 1", "unit": "%"}, {"measurement": "Percentage HDAC6 activity", "setting": "[2]; 1 uM inhibitor", "value": "4 ± 2", "unit": "%"}, {"measurement": "Percentage HDAC1 activity", "setting": "[3]; 0.1 uM inhibitor", "value": "70 ± 15", "unit": "%"}, {"measurement": "Percentage HDAC1 activity", "setting": "[3]; 1 uM inhibitor", "value": "12 ± 7", "unit": "%"}]}
